This is an account of results in patent US20250214947A1, “3,4-DIHYDROQUINOXALINE-2-CARBOXIMIDE DERIVATIVE COMPOUND AND PHARMACEUTICAL COMPOSITION COMPRISING SAME FOR PREVENTING OR TREATING CANCER DISEASE” (Cureverse Incorporated, priority 2022, published 2025).

Molecules are shown by their SMILES.

One series has as its system Liver cancer cells Huh-7. As to the kind of experiment: Liver cancer cell growth inhibition, CellTiter-Glo Luminescent Cell Viability Assay. It is filed as cell-based. The note with it: various concentrations; day 1; FIG. 6. The method, then: In addition, an analysis of liver cancer growth inhibitory activity was performed. Liver cancer cells Huh-7 cells were dispensed in a 96-well plate at 1×10^4 cells/ml, and after 20 hours, PCI34051, Example 27, and Example 35 were added at various concentrations, and cultured for 24 and 48 hours at 37° C. in a 5% CO2 atmosphere. After culturing, 100 l CellTiter-Glo Luminescent Cell Viability Assay reagent was added and the luminescence signal was measured after 0.5-1 hour. The luminescence signal was measured using IVIS [PerkinElmer, (Waltham, USA)].

Series [1] is described as follows: Body weight of mice during drug administration, prostate cancer model. It is filed as in vivo, nude mice. The note with it: 50 mg/kg orally once a day; drug administration period; FIG. 5. How it is done:
A prostate cancer model was established by subcutaneously transplanting PC-3 cell lines into nude mice, and the mice were divided into two groups (group 1: vehicle administration group (10% DSMO, 30% PEG400, 60% DW), group 2: 50 mg/kg Example 27 compound administration group). The drug was administered orally once a day for 12 times. To evaluate the therapeutic efficacy, tumors were […] before drug administration and on days 3, 6, 8, 10, 12, and 14 after drug administration, and tumor volumes were measured. Tumor volume (mm^3) was calculated as follows (tumor volume (mm^3)=(A×B^2)/2, where A=tumor long axis, B=tumor short axis), and the results are shown in FIG. 2.

In a further series the target is HDAC1 (Homo sapiens, UniProt Q13547). As to the kind of experiment: Selective inhibitory effect, HDAC Fluorogenic assay kit, HDAC1. The note with it: read-out: HDAC1 enzyme activity (%).
HDAC1, sequence (Q13547 whole entry): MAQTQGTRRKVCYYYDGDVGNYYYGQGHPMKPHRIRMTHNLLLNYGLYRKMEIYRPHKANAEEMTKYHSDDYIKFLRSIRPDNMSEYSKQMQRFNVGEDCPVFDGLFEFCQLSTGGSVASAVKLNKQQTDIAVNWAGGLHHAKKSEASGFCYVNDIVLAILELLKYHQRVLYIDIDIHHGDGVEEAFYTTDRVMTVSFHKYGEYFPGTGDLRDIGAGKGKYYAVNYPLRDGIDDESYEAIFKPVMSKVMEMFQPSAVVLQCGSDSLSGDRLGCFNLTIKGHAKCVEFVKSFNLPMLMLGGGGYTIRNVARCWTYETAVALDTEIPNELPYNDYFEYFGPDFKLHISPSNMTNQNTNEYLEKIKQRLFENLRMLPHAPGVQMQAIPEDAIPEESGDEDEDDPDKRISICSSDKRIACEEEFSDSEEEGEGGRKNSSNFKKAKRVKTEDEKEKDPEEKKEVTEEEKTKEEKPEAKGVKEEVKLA
The target of the next series is T1, HDAC6 (Homo sapiens, UniProt Q9UBN7).
T1 sequence (Q9UBN7 1-1215): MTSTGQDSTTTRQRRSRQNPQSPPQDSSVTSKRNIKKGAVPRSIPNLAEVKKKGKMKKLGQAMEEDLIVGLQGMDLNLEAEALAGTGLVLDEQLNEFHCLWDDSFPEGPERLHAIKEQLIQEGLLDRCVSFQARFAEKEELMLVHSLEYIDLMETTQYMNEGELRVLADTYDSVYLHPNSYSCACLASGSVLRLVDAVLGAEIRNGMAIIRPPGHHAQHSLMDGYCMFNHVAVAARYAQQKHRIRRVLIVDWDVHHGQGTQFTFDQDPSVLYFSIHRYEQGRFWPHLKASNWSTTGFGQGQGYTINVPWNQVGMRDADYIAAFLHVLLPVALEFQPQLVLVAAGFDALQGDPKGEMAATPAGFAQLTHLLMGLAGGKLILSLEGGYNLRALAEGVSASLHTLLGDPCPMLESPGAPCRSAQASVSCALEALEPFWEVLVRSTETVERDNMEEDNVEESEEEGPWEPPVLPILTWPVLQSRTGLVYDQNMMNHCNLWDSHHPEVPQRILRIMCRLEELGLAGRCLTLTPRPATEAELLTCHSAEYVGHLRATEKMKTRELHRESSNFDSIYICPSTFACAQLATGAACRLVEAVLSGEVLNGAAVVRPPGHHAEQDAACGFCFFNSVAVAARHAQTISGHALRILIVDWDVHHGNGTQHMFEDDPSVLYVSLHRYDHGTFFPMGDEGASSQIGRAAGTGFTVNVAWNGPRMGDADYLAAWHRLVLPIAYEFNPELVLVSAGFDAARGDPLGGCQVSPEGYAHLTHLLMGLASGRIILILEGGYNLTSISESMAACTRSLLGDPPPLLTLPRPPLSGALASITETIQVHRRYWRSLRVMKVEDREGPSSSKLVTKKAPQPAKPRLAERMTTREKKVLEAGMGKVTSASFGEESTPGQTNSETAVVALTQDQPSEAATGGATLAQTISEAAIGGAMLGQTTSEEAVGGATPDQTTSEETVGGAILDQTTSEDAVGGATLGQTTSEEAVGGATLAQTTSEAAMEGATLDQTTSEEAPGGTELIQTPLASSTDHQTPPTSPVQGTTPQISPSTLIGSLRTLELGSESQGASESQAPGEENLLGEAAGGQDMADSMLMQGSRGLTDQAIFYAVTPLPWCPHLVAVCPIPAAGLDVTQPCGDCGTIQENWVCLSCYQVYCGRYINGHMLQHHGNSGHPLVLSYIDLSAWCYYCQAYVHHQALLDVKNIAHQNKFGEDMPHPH
The series can be described thus: Selective inhibitory effect, HDAC Fluorogenic assay kit, HDAC6. Particulars: read-out: HDAC6 enzyme activity (%).

In another series the target is T2, HDAC10 (Homo sapiens, UniProt Q969S8).
T2 sequence (Q969S8 1-669): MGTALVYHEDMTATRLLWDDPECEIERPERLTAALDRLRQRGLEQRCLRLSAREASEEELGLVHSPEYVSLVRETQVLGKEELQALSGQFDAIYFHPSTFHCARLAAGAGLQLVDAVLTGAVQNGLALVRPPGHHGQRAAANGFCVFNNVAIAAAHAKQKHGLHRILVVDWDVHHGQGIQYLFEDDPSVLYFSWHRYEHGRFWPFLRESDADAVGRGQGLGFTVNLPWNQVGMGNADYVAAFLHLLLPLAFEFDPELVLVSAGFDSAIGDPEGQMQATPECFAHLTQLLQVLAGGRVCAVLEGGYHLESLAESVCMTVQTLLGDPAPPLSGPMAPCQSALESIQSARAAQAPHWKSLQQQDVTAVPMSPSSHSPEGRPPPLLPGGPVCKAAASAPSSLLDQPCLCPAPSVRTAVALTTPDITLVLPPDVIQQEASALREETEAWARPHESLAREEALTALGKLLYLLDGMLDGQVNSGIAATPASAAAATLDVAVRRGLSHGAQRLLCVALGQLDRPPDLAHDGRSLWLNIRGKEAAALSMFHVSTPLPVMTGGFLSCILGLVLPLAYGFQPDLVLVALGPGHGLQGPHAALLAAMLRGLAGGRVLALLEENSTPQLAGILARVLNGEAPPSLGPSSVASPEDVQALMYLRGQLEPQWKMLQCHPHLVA
As to the kind of experiment: Selective inhibitory effect, HDAC Fluorogenic assay kit, HDAC10. Particulars: read-out: HDAC10 enzyme activity (%).

Protocol for HDAC10: (§1) For analysis, HDAC substrate 3 was diluted in buffer to a concentration of 200 μM and used in HDAC 1, 2, 3, 6, and 10 assays, HDAC substrate 2A was diluted in buffer to a concentration of 200 μM and used in HDAC 4, 7, 9, and 11 assays, HDAC substrate 2A was diluted in buffer to a concentration of 20 μM and used in HDAC 8 assays. For the HDAC 11 assay, a dedicated buffer included in the kit was used separately, and the same buffer was used for the remaining assays. The compound of the Example was diluted to 1 mM (1% DMSO concentration) using DMSO to obtain a final concentration of 10 μM, and prepared by diluting 1/10 with assay buffer. In a 96-well black round-bottom plate, 5 μL of the diluted compound of the Example, 5 μL of the diluted HDAC substrate, 5 μL of BSA (1 mg/ml), 5 μL of the HDAC enzyme diluted to the appropriate concentration, and 30 μL of assay buffer were added, and the enzyme reaction was performed at 37° C. for 30 minutes. […] Afterwards, 50 μL of 2×HDAC developer was added to each well. After reacting for 15 minutes at room temperature, the fluorescence values at excitation wavelengths of 350-380 nm and emission wavelengths of 440-460 nm were measured using a microplate reader (Synergy Neo).
Protocol for HDAC6: as §1

For `Cc1cc2nc(C(=O)NCCc3c[nH]c4ccc(O)cc34)c(=O)n(C[C@H](O)[C@H](O)[C@H](O)CO)c2cc1C` [Example 27, N-(2-(5-hydroxy-1H-indol-3-yl)ethyl)-6,7-dimethyl-3-oxo-4-((2S,3S,4R)-2,3,4,5-tetrahydroxypentyl)-3,4-dihydroquinoxaline-2-carboxamide], in the series with Liver cancer cells Huh-7, the “Huh-7 cell viability (in words)” value is “concentration-dependent inhibition of cancer cell viability”. The “body weight of the mice (in words)” value in series [1] is “no rapid weight loss was confirmed”. Further, the results for the remaining activity at 10 µM on HDAC1, on HDAC6 and on HDAC10 were 76.2%, 43.7% and 87.2%, respectively.
